Test results as given in PubChem BioAssay AID1963854 (Molecular Pharmacology Branch, DTP, NCI, 2024).

Test system: 186277-243-T-J2-PDC complex spheroid viability
Experiment: Anticancer human tumor 186277-243-T-J2-PDC patient-derived colon adenocarcinoma cell line growth inhibition [POLQ]
Conditions: for IC50: curve of first compound; for viability, T/C: stronger effect = lower value
In short: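 PDC + HUVEC + MSC complex spheroids; POLQ inhibitors ± partner drugs; top conc. at/near clinical Cmax, else 10 microM (SN-38 1 microM), half-log dilutions; 37 degrees C, 5% CO2.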

[1] = second compound 0.0316 µM, first compound 0.0316 µM
[2] = second compound 0.0316 µM, first compound 0.1 µM
[3] = second compound 0.0316 µM, first compound 0.316 µM
[4] = second compound 0.0316 µM, first compound 1 µM
[5] = second compound 0.1 µM, first compound 0.0316 µM
[6] = second compound 0.1 µM, first compound 0.1 µM
[7] = second compound 0.1 µM, first compound 0.316 µM
[8] = second compound 0.1 µM, first compound 1 µM
[9] = second compound 0.316 µM, first compound 0.0316 µM
[10] = second compound 0.316 µM, first compound 0.1 µM
[11] = second compound 0.316 µM, first compound 0.316 µM
[12] = second compound 0.316 µM, first compound 1 µM
[13] = second compound 1 µM, first compound 0.0316 µM
[14] = second compound 1 µM, first compound 0.1 µM
[15] = second compound 1 µM, first compound 0.316 µM
[16] = second compound 1 µM, first compound 1 µM
[17] = second compound 3.16 µM, first compound 0.0316 µM
[18] = second compound 3.16 µM, first compound 0.1 µM
[19] = second compound 3.16 µM, first compound 0.316 µM
[20] = second compound 3.16 µM, first compound 1 µM
[21] = second compound 10 µM, first compound 0.0316 µM
[22] = second compound 10 µM, first compound 0.1 µM
[23] = second compound 10 µM, first compound 0.316 µM
[24] = second compound 10 µM, first compound 1 µM
[25] = second compound 0.0316 µM, first compound 3.16 µM
[26] = second compound 0.0316 µM, first compound 10 µM
[27] = second compound 0.1 µM, first compound 3.16 µM
[28] = second compound 0.1 µM, first compound 10 µM
[29] = second compound 0.316 µM, first compound 3.16 µM
[30] = second compound 0.316 µM, first compound 10 µM
[31] = second compound 1 µM, first compound 3.16 µM
[32] = second compound 1 µM, first compound 10 µM
[33] = second compound 3.16 µM, first compound 3.16 µM
[34] = second compound 3.16 µM, first compound 10 µM
[35] = second compound 10 µM, first compound 3.16 µM
[36] = second compound 10 µM, first compound 10 µM
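Further: spheroids exposed to compounds for seven days.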
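Wherever viability, T/C is given: 100% = DMSO vehicle control viability.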

Question: Which results are given for `C=CCn1c(=O)c2cnc(Nc3ccc(N4CCN(C)CC4)cc3)nc2n1-c1cccc(C(C)(C)O)n1` + Nc1ccc(C#CCN(C(=O)Cc2ncc(C(F)(F)F)cc2C(F)(F)F)c2ccc(F)cc2)nn1?
Answer: IC50 (second compound 0.0316 µM): 212 nM; IC50 (second compound 0.1 µM): 224 nM; IC50 (second compound 0.316 µM): 229 nM; IC50 (second compound 1 µM): 214 nM; IC50 (second compound 3.16 µM): 211 nM; IC50 (second compound 10 µM): 204 nM; viability, T/C (second compound 0.0316 µM, first compound 0.00316 µM): 95%; viability, T/C (second compound 0.0316 µM, first compound 0.01 µM): 91.2%; viability, T/C [1]: 86.9%; viability, T/C [2]: 87.5%; viability, T/C [3]: 30.1%; viability, T/C [4]: 15.7%; viability, T/C (second compound 0.1 µM, first compound 0.00316 µM): 94.8%; viability, T/C (second compound 0.1 µM, first compound 0.01 µM): 107%; viability, T/C [5]: 109%; viability, T/C [6]: 99.5%; viability, T/C [7]: 28.8%; viability, T/C [8]: 15.1%; viability, T/C (second compound 0.316 µM, first compound 0.00316 µM): 88.5%; viability, T/C (second compound 0.316 µM, first compound 0.01 µM): 105%; viability, T/C [9]: 93%; viability, T/C [10]: 101%; viability, T/C [11]: 31.8%; viability, T/C [12]: 14.4%; viability, T/C (second compound 1 µM, first compound 0.00316 µM): 89.5%; viability, T/C (second compound 1 µM, first compound 0.01 µM): 101%; viability, T/C [13]: 101%; viability, T/C [14]: 93%; viability, T/C [15]: 28%; viability, T/C [16]: 12%; viability, T/C (second compound 3.16 µM, first compound 0.00316 µM): 109%; viability, T/C (second compound 3.16 µM, first compound 0.01 µM): 97.5%; viability, T/C [17]: 110%; viability, T/C [18]: 98.2%; viability, T/C [19]: 23.7%; viability, T/C [20]: 13.3%; viability, T/C (second compound 10 µM, first compound 0.00316 µM): 90.9%; viability, T/C (second compound 10 µM, first compound 0.01 µM): 98.1%; viability, T/C [21]: 100%; viability, T/C [22]: 96.5%; viability, T/C [23]: 21.3%; viability, T/C [24]: 11.2%

Question: `C#Cc1c(F)ccc2cc(O)cc(-c3ncc4c(N5CC6CCC(C5)N6)nc(OCC56CCCN5CC(F)C6)nc4c3F)c12` (stereo not drawn) + Cc1cccc(N(C)C(=O)C2C(O)CCN2c2nc(C)cc(C(F)(F)F)c2C#N)c1 was tested. Which IC50 (second compound 0.0316 µM) did it give?
Answer: 97.5 nM

Question: What about the IC50 (second compound 0.1 µM) of the same compound?
Answer: 113 nM

Question: And the IC50 (second compound 0.316 µM)?
Answer: 79.9 nM

Question: And the IC50 (second compound 1 µM)?
Answer: 84.2 nM

Question: And the IC50 (second compound 3.16 µM)?
Answer: 63.9 nM

Question: And the IC50 (second compound 10 µM)?
Answer: 32.8 nM

Question: What about the viability, T/C [1] of the same compound?
Answer: 81.1%

Question: What about the viability, T/C [2] of the same compound?
Answer: 49.3%

Question: What about the viability, T/C [3] of the same compound?
Answer: 21.4%

Question: What about the viability, T/C [4] of the same compound?
Answer: 8.81%

Question: And the viability, T/C [25]?
Answer: 6.82%

Question: And the viability, T/C [26]?
Answer: 4.22%

Question: And the viability, T/C [5]?
Answer: 80.7%

Question: And the viability, T/C [6]?
Answer: 53.5%

Question: And the viability, T/C [7]?
Answer: 21.9%

Question: What about the viability, T/C [8] of the same compound?
Answer: 9.85%

Question: And the viability, T/C [27]?
Answer: 6.56%

Question: What about the viability, T/C [28] of the same compound?
Answer: 4.18%

Question: What about the viability, T/C [9] of the same compound?
Answer: 86.9%

Question: What about the viability, T/C [10] of the same compound?
Answer: 41%

Question: What about the viability, T/C [11] of the same compound?
Answer: 16.9%

Question: And the viability, T/C [12]?
Answer: 8.42%

Question: What about the viability, T/C [29] of the same compound?
Answer: 6.35%

Question: And the viability, T/C [30]?
Answer: 5.85%

Question: And the viability, T/C [13]?
Answer: 89.8%

Question: And the viability, T/C [14]?
Answer: 43%

Question: And the viability, T/C [15]?
Answer: 19.6%

Question: And the viability, T/C [16]?
Answer: 11%

Question: And the viability, T/C [31]?
Answer: 6.21%

Question: And the viability, T/C [32]?
Answer: 4.34%

Question: What about the viability, T/C [17] of the same compound?
Answer: 80.6%

Question: What about the viability, T/C [18] of the same compound?
Answer: 30.4%

Question: What about the viability, T/C [19] of the same compound?
Answer: 11.1%

Question: What about the viability, T/C [20] of the same compound?
Answer: 6.02%

Question: What about the viability, T/C [33] of the same compound?
Answer: 6.21%

Question: What about the viability, T/C [34] of the same compound?
Answer: 5.42%

Question: And the viability, T/C [21]?
Answer: 51.6%

Question: And the viability, T/C [22]?
Answer: 18.2%

Question: And the viability, T/C [23]?
Answer: 11%

Question: What about the viability, T/C [24] of the same compound?
Answer: 5.4%

Question: What about the viability, T/C [35] of the same compound?
Answer: 4.3%

Question: And the viability, T/C [36]?
Answer: 3.05%

Question: Which results are given for `CCc1cc2c(N3CCc4c(cc(Cn5ccnc5)cc4-c4cn(C)nc4C(F)(F)F)C3=O)cc(C)nc2c(OC)n1` + Cc1cccc(N(C)C(=O)C2C(O)CCN2c2nc(C)cc(C(F)(F)F)c2C#N)c1?
Answer: IC50 (second compound 0.0316 µM): > 10000 nM; IC50 (second compound 0.1 µM): > 10000 nM; IC50 (second compound 0.316 µM): > 10000 nM; IC50 (second compound 1 µM): > 10000 nM; IC50 (second compound 3.16 µM): > 10000 nM; IC50 (second compound 10 µM): > 10000 nM; viability, T/C [1]: 111%; viability, T/C [2]: 86.9%; viability, T/C [3]: 98.8%; viability, T/C [4]: 97.1%; viability, T/C [25]: 93.9%; viability, T/C [26]: 95.2%; viability, T/C [5]: 90.8%; viability, T/C [6]: 91.3%; viability, T/C [7]: 96.8%; viability, T/C [8]: 99.4%; viability, T/C [27]: 112%; viability, T/C [28]: 83.2%; viability, T/C [9]: 97%; viability, T/C [10]: 101%; viability, T/C [11]: 101%; viability, T/C [12]: 114%; viability, T/C [29]: 116%; viability, T/C [30]: 92.5%; viability, T/C [13]: 99.4%; viability, T/C [14]: 96.9%; viability, T/C [15]: 107%; viability, T/C [16]: 111%; viability, T/C [31]: 115%; viability, T/C [32]: 83.4%; viability, T/C [17]: 108%; viability, T/C [18]: 104%; viability, T/C [19]: 88.6%; viability, T/C [20]: 113%; viability, T/C [33]: 94.1%; viability, T/C [34]: 92.9%; viability, T/C [21]: 101%; viability, T/C [22]: 110%; viability, T/C [23]: 107%; viability, T/C [24]: 103%; viability, T/C [35]: 104%; viability, T/C [36]: 97.9%

Question: Which results are given for `COc1cccc2c1C(=O)c1c(O)c3c(c(O)c1C2=O)CC(O)(C(=O)CO)CC3OC1CC(N)C(O)C(C)O1` (stereo not drawn) + COC1C(OC(N)=O)C(O)C(Oc2ccc3c(O)c(NC(=O)c4ccc(O)c(CC=C(C)C)c4)c(=O)oc3c2C)OC1(C)C?
Answer: IC50 (second compound 0.0316 µM): 77.7 nM; IC50 (second compound 0.1 µM): 88.7 nM; IC50 (second compound 0.316 µM): 91.6 nM; IC50 (second compound 1 µM): 92.4 nM; IC50 (second compound 3.16 µM): 92.1 nM; IC50 (second compound 10 µM): 86.4 nM; viability, T/C [1]: 89.2%; viability, T/C [2]: 38.9%; viability, T/C [3]: 9.13%; viability, T/C [4]: 0.32%; viability, T/C [25]: 0.18%; viability, T/C [26]: 0.46%; viability, T/C [5]: 94.1%; viability, T/C [6]: 44.9%; viability, T/C [7]: 8.43%; viability, T/C [8]: 0.24%; viability, T/C [27]: 0.13%; viability, T/C [28]: 0.51%; viability, T/C [9]: 90.7%; viability, T/C [10]: 46.6%; viability, T/C [11]: 9.28%; viability, T/C [12]: 0.18%; viability, T/C [29]: 0.13%; viability, T/C [30]: 0.36%; viability, T/C [13]: 92.1%; viability, T/C [14]: 46.9%; viability, T/C [15]: 9.15%; viability, T/C [16]: 0.2%; viability, T/C [31]: 0.16%; viability, T/C [32]: 0.36%; viability, T/C [17]: 88.9%; viability, T/C [18]: 47%; viability, T/C [19]: 8.15%; viability, T/C [20]: 0.24%; viability, T/C [33]: 0.2%; viability, T/C [34]: 0.37%; viability, T/C [21]: 95.8%; viability, T/C [22]: 43.3%; viability, T/C [23]: 8.67%; viability, T/C [24]: 0.31%; viability, T/C [35]: 0.31%; viability, T/C [36]: 0.68%
